Laboratory results from patent US20230255877A1, “COMPOSITION FOR IMPROVING SKIN COMPRISING STEAMED CITRUS PEEL EXTRACT AS ACTIVE INGREDIENT” (LG HOUSEHOLD & HEALTH CARE LTD., priority 2022, published 2023).

Tests used:
[1] = tested on: human dermal fibroblasts; experiment: Collagen synthesis promotion in human dermal fibroblasts (procollagen 1α1 ELISA); assay type: cell-based
Procedure: In order to confirm the collagen synthesis promoting effect of the citrus peel extracts, the amount of additional collagen production was measured after the extracts were untreated, steamed for 30 minutes, or steamed for 8 hours. In order to culture human dermal fibroblasts, a mixture of DMEM and FBS was used as a basic medium, and the skin fibroblasts were seeded into a 48-well plate at a concentration of 2 to 5×10^4 cells/mL and cultured for 24 hours. The medium was removed, and the DMSO lysate of each extract was treated in serum-free medium so that the concentration was 100 ppm, and cultured for 24 hours. A positive control that promotes collagen synthesis was treated with TGF-β to a concentration of 5 ppb. The cell culture solution was taken and the synthesized collagen was measured using the Human procollagen 1α1 duoset ELISA Kit (R&D Systems) and ELISA reader. A calibration curve was prepared by measuring the isolated and purified collagen at concentrations of 0.25, 0.5, 1, 2, 4, and 8 ng/mL, and based on the results, the amount of collagen (Type I collagen) produced in the DMSO lysate of the citrus peel extracts was calculated. The amount of collagen produced compared to the control group (DMSO) was calculated as collagen production rate (%), and the average value was calculated after the experiment was performed three times (Table 14).
In order to identify the cause of the change in collagen synthesis promoting efficacy among the steamed citrus peel extract components, the amount of additional collagen production of hesperidin, a flavonoid glycone, and hesperetin, a flavonoid aglycone, was compared (Table 15).

[2] = tested on: Raw264.7 cells; experiment: NO production inhibition in lipopolysaccharide-treated Raw264.7 cells (GRIESS reagent); assay type: cell-based
Procedure: In order to confirm the anti-inflammatory effect of the citrus peel extracts, NO production inhibition rate was measured after the extracts were untreated, steamed for 30 minutes, or steamed for 8 hours. In order to culture Raw264.7 cells, a mixture of DMEM (Dulbecco's Modified Eagle's Medium) and FBS (Fetal Bovine Serum) was used as a basic medium, and the Raw264.7 cells were seeded into a 24-well plate at a concentration of 1 to 2×10^5 cells/mL and cultured for 24 hours. The medium was removed and the cells were starvated in serum-free medium for 12 hours, and thereafter, the DMSO lysate of each extract was treated so that the concentration was 200 ppm, and after 30 minutes, lipopolysaccharide was added at a concentration of 500 ng/ml and cultured for 18 hours. L-NMMA, a positive control, was treated at 20 ppm. After completion of the culture, the supernatant was taken and transferred to a 96-well plate, reacted at room temperature by adding the GRIESS reagent, and the absorbance at 540 nm was measured using an ELISA reader. The amount of NO inhibited compared to the control group was calculated as NO production inhibition rate (%), and the average value was calculated after the experiment was performed three times.
In order to identify the cause of the change in anti-inflammatory efficacy among the steamed citrus peel extract components, the NO production inhibition rates of hesperidin, a flavonoid glycone, and hesperetin, a a flavonoid aglycone, were compared (Table 13)

COc1ccc([C@@H]2CC(=O)c3c(O)cc(O)cc3O2)cc1O [Hesperetin, hesperetin]
Additional Collagen Production Rate ([1]; 0.1 ppm): 17.0%
Additional Collagen Production Rate ([1]; 1 ppm): 16.8%
inhibition at 0.1 ppm ([2]; Mus musculus, RAW264.7, 0.1 ppm, read-out: NO Production Inhibition Rate): -3%
inhibition at 1 ppm ([2]; Mus musculus, RAW264.7, 1 ppm, read-out: NO Production Inhibition Rate): 2.6%
inhibition at 10 ppm ([2]; Mus musculus, RAW264.7, 10 ppm, read-out: NO Production Inhibition Rate): 8.1%
inhibition at 20 ppm ([2]; Mus musculus, RAW264.7, 20 ppm, read-out: NO Production Inhibition Rate): 35.6%

COc1ccc([C@@H]2CC(=O)c3c(O)cc(O[C@@H]4O[C@H](CO[C@@H]5O[C@@H](C)[C@H](O)[C@@H](O)[C@H]5O)[C@@H](O)[C@H](O)[C@H]4O)cc3O2)cc1O [Hesperidin, hesperidin]
Additional Collagen Production Rate ([1]; 0.1 ppm): −0.2%
Additional Collagen Production Rate ([1]; 1 ppm): 0.2%
NO Production Inhibition Rate ([2]; 0.1 ppm): −5.5%
NO Production Inhibition Rate ([2]; 1 ppm): 0.6%
NO Production Inhibition Rate ([2]; 10 ppm): 1.8%
NO Production Inhibition Rate ([2]; 20 ppm): 2.4%

CNC(=N)NCCC[C@H](N)C(=O)O [L-NMMA]
NO Production Inhibition Rate ([2]; positive control, 20 ppm, Table 12): 55.1%
NO Production Inhibition Rate ([2]; positive control, Table 13): 51.3%

TGF-β: positive control that promotes collagen synthesis
Additional Collagen Production Rate ([1]; positive control, 5 ppb, Table 14): 25.2%
Additional Collagen Production Rate ([1]; positive control, Table 15): 23.7%
